# Article PMC9133015 (Nature Communications, 2022)
# “And” between values parts separate entries of the source, which are not always exact repeats. Equal values may be shown once. “Also recorded” adds a separate entry of the source.
# Columns and labels:
# [1] = tested on: DU145 xenograft; assay: H&E and Ki67 staining of xenograft tumor tissues; format: in vivo, BALB/c nude mice; settings: replicates
# [2] = tested on: PC-3 cells; assay: Anti-proliferation activity assay (CCK8, 72 h); format: cell-based, human; settings: for Relative proliferation rate (%) mean / Relative proliferation rate (%) / optical density: PC-3; for Relative proliferation rate (%) / optical density: replicates
# [3] = tested on: DU145 cells; assay: Anti-proliferation activity assay (CCK8, 72 h); format: cell-based, human; settings: for Relative proliferation rate (%) mean / Relative proliferation rate (%) / optical density: DU145; for Relative proliferation rate (%) / optical density: replicates
# [4] = tested on: RWPE-1 cells; assay: Anti-proliferation activity assay (CCK8, 72 h); format: cell-based; settings: for Relative proliferation rate (%) mean / Relative proliferation rate (%) / optical density: RWPE1; for Relative proliferation rate (%) / optical density: replicates
# [5] = tested on: DU145 xenograft; assay: In vivo antitumor activity, DU145 xenograft mouse model; design: species or system BALB/c nude mice; settings: for Tumor weight (Fig. 7c): individual mice, in g (unit assumed); for Body weight (Fig. 7b) / Tumor volume (Fig. 7a): YK-2-69 (100 mg/kg), 100 mg/kg; for Tumor volume (Fig. 7a): in cm³ (unit assumed)
structure (smiles),measurement,setting,value
CCN1CCN(C(=O)c2ccc(Nc3ncc(F)c(-c4ccc5nc(N(C)C)sc5c4)n3)nc2)CC1 [YK-2-69],Positive rate ( % ) (Fig. 7f),"[1]; DU145, High dose",15.32% and 14.77% and 16.1%
same,Positive rate ( % ) (Fig. 7f),"[1]; DU145, Low dose",20.24% and 19.5% and 21.1%
same,IC50,"[2]; Homo sapiens, PC-3, read-out: IC50 against proliferation",1070 nM
same,Relative proliferation rate (%) mean,[2]; 0.0049 uM,6.648%
same,Relative proliferation rate (%),[2]; 0.0049 uM,6.621% and 4.33% and 8.993%
same,optical density,[2]; 0.0049 uM,0.945 and 0.95 and 0.931
same,Relative proliferation rate (%) mean,[2]; 0.078 uM,18.3188%
same,Relative proliferation rate (%),[2]; 0.078 uM,15.5138% and 18.3283% and 21.1144%
same,optical density,[2]; 0.078 uM,0.855 and 0.811 and 0.807
same,Relative proliferation rate (%) mean,[2]; 0.3125 uM,33.3383%
same,Relative proliferation rate (%),[2]; 0.3125 uM,28.6561% and 33.3333% and 38.0254%
same,optical density,[2]; 0.3125 uM,0.722 and 0.662 and 0.634
same,Relative proliferation rate (%) mean,[2]; 1.25 uM,54.3687%
same,Relative proliferation rate (%),[2]; 1.25 uM,47.8261% and 54.3807% and 60.8993%
same,optical density,[2]; 1.25 uM,0.528 and 0.453 and 0.4
same,Relative proliferation rate (%) mean,[2]; 5 uM,70.2315%
same,Relative proliferation rate (%),[2]; 5 uM,66.7984% and 70.1913% and 73.7048%
same,optical density,[2]; 5 uM,0.336 and 0.296 and 0.269
same,Relative proliferation rate (%) mean,[2]; 20 uM,81.0679%
same,Relative proliferation rate (%),[2]; 20 uM,78.6561% and 81.0675% and 83.48%
same,optical density,[2]; 20 uM,0.216 and 0.188 and 0.169
same,Relative proliferation rate (%) mean,[2]; 80 uM,88.776%
same,Relative proliferation rate (%),[2]; 80 uM,88.7352% and 82.578% and 95.0147%
same,optical density,[2]; 80 uM,0.114 and 0.173 and 0.051
same,inhibitory activity against proliferation (in words),[2]; PC-3 cells,potent inhibitory activity
same,Relative proliferation rate (%) mean,[3]; 0.0049 uM,5.845%
same,Relative proliferation rate (%),[3]; 0.0049 uM,5.804% and 4.647% and 7.084%
same,optical density,[3]; 0.0049 uM,0.99 and 0.985 and 1.01
same,Relative proliferation rate (%) mean,[3]; 0.078 uM,13.2988%
same,Relative proliferation rate (%),[3]; 0.078 uM,13.2255% and 9.1% and 17.5713%
same,optical density,[3]; 0.078 uM,0.912 and 0.939 and 0.896
same,Relative proliferation rate (%) mean,[3]; 0.3125 uM,23.3091%
same,Relative proliferation rate (%),[3]; 0.3125 uM,23.3111% and 19.8451% and 26.7709%
same,optical density,[3]; 0.3125 uM,0.806 and 0.828 and 0.796
same,Relative proliferation rate (%) mean,[3]; 1.25 uM,41.9044%
same,Relative proliferation rate (%),[3]; 1.25 uM,41.8649% and 39.6902% and 44.1582%
same,optical density,[3]; 1.25 uM,0.611 and 0.623 and 0.607
same,Relative proliferation rate (%) mean,[3]; 5 uM,55.1717%
same,Relative proliferation rate (%),[3]; 5 uM,55.1855% and 52.3717% and 57.9577%
same,optical density,[3]; 5 uM,0.471 and 0.492 and 0.457
same,Relative proliferation rate (%) mean,[3]; 20 uM,69.2763%
same,Relative proliferation rate (%),[3]; 20 uM,69.3625% and 65.0532% and 73.4131%
same,optical density,[3]; 20 uM,0.322 and 0.361 and 0.289
same,Relative proliferation rate (%) mean,[3]; 80 uM,80.2708%
same,Relative proliferation rate (%),[3]; 80 uM,80.3045% and 75.4114% and 85.0966%
same,optical density,[3]; 80 uM,0.207 and 0.254 and 0.162
same,inhibitory activity against proliferation (in words),[3]; DU145 cells,potent inhibitory activity
same,IC50,"[3]; Homo sapiens, DU-145, read-out: IC50 against proliferation",3300 nM
same,Relative proliferation rate (%) mean,[4]; 0.078 uM,1.172%
same,Relative proliferation rate (%),[4]; 0.078 uM,1.172% and 0.4794% and 1.866%
same,optical density,[4]; 0.078 uM,1.096 and 1.038 and 1.052
same,Relative proliferation rate (%) mean,[4]; 0.3125 uM,5.563%
same,Relative proliferation rate (%),[4]; 0.3125 uM,5.591% and 3.3557% and 7.743%
same,optical density,[4]; 0.3125 uM,1.047 and 1.008 and 0.989
same,Relative proliferation rate (%) mean,[4]; 1.25 uM,13.0424%
same,Relative proliferation rate (%),[4]; 1.25 uM,13.0748% and 7.862% and 18.1903%
same,optical density,[4]; 1.25 uM,0.964 and 0.961 and 0.877
same,Relative proliferation rate (%) mean,[4]; 5 uM,20.9606%
same,Relative proliferation rate (%),[4]; 5 uM,21.0099% and 16.7785% and 25.0933%
same,optical density,[4]; 5 uM,0.876 and 0.868 and 0.803
same,Relative proliferation rate (%) mean,[4]; 20 uM,54.7483%
same,Relative proliferation rate (%),[4]; 20 uM,54.734% and 48.1304% and 61.3806%
same,optical density,[4]; 20 uM,0.502 and 0.541 and 0.414
same,Relative proliferation rate (%) mean,[4]; 80 uM,72.5701%
same,Relative proliferation rate (%),[4]; 80 uM,72.5879% and 64.5254% and 80.597%
same,optical density,[4]; 80 uM,0.304 and 0.37 and 0.208
same,inhibitory activity against proliferation (in words),[4]; RWPE-1 cells,weak inhibitory activity
same,body weight of mice (in words),"[5]; DU145 xenograft, 200 mg/kg orally once a day",increased gradually
same,antitumor activity (in words),"[5]; DU145 xenograft, 200 mg/kg orally once a day, seven weeks, 200 mg/kg",much better antitumor activities than both enzalutamide and palbociclib; also recorded: decreased the volume of tumor since the 31st day
same,Tumor weight (Fig. 7c),[5]; High dose,0.51 and 0.47 and 0.43 and 0.45 and 0.62 and 0.73 and 0.69 and 0.41
same,Tumor weight (Fig. 7c),[5]; Low dose,1.34 and 1.32 and 1.29 and 1.36 and 1.47 and 1.24 and 1.68 and 1.73 and 1.54 and 1.49
same,Body weight (Fig. 7b),"[5]; Day 37, individual mice",26.5 and 24.2 and 25.7 and 25.5 (2×) and 24.9 and 24.6 and 25.2 and 25.6 and 26.6
same,Tumor volume (Fig. 7a),"[5]; Day 37, individual mice",0.9849 and 0.8117 and 1.322 and 0.8631 and 0.9203 and 0.6445 and 0.8644 and 1.073 and 1.152 and 1.1772
same,Body weight (Fig. 7b),"[5]; Day 39, individual mice",26.2 and 24.5 and 25.9 and 25.8 (2×) and 25.3 and 24.9 and 25.4 and 26 and 26.8
same,Tumor volume (Fig. 7a),"[5]; Day 39, individual mice",0.957 and 0.8113 and 1.305 and 0.8461 and 0.9452 and 0.6025 and 0.7668 and 1.032 and 1.21 and 1.322
same,Body weight (Fig. 7b),"[5]; Day 41, individual mice",26.4 and 24.6 and 26.1 and 25.8 and 25.6 (2×) and 25.2 and 26.3 and 26 and 26.5
same,Tumor volume (Fig. 7a),"[5]; Day 41, individual mice",1.01 and 0.8586 and 1.367 and 0.9073 and 0.9955 and 0.6291 and 0.7765 and 1.063 and 1.256 and 1.304
same,Body weight (Fig. 7b),"[5]; Day 43, individual mice",26.7 and 25 and 26.3 (2×) and 25.9 (2×) and 25.4 and 26.5 and 25.7 and 26.6
